What was measured:
Plasmodium falciparum [1] = test system: Plasmodium falciparum
Description: (§1) Antimalarial activity against Plasmodium falciparum TM91C235

Plasmodium falciparum [2] = test system: Plasmodium falciparum; remark: listed apart in the source
Description: (§2) Antimalarial activity against Plasmodium falciparum W2

Plasmodium falciparum [3] = test system: Plasmodium falciparum; remark: listed apart in the source
Description: (§3) Antimalarial activity against Plasmodium falciparum D6

UO-31 = test: Antiproliferative activity against human UO31 cell line after 48 hrs; type: functional; details: Homo sapiens, UO-31, 48 h; for CC50: read-out: LC50 (the source's name)
Plasmodium falciparum [4] = test: microbe, parasite or virus in culture; details: D6
Description: as §3

Plasmodium falciparum [5] = test: microbe, parasite or virus in culture; details: TM91C235
Description: as §1

Plasmodium falciparum [6] = test: microbe, parasite or virus in culture; details: W2
Description: as §2

IGROV-1 = test: Antiproliferative activity against human IGROV1 cell line after 48 hrs; type: functional; details: Homo sapiens, IGROV-1, 48 h; for CC50: read-out: LC50 (the source's name)
Mus musculus [7] = test: Effect on survival of CD1 mice (Mus musculus) infected with Plasmodium berghei KBG173 at 50 mg/kg/day, perorally; type: functional; details: route oral
Mus musculus [8] = test: Effect on survival of CD1 mice (Mus musculus) infected with Plasmodium berghei KBG173 at 600 mg/kg/day, perorally; type: functional, organism-based; parameters: route oral; details: route oral
Mus musculus [9] = test: Effect on survival of CD1 mice (Mus musculus) infected with Plasmodium berghei KBG173 at 200 mg/kg/day, perorally; type: functional; details: route oral
EKVX = test: Antiproliferative activity against human EKVX cell line after 48 hrs; type: functional; details: Homo sapiens, EKVX, 48 h
COLO 205 = test: Antiproliferative activity against human COLO 205 cell line after 48 hrs; type: functional; details: Homo sapiens, COLO 205, 48 h
HOP-62 = test: Antiproliferative activity against human HOP62 cell line after 48 hrs; type: functional; details: Homo sapiens, HOP-62, 48 h
LOX IMVI = test: Antiproliferative activity against human LOX IMVI cell line after 48 hrs; type: functional
[10] = read-out: LC50 (the source's name)

Structure (SMILES): CCCNC(=O)CC[C@@H](C)[C@H]1CC[C@H]2[C@@H]3[C@H](OC(C)=O)C[C@@H]4CC5(CC[C@]4(C)[C@H]3C[C@H](OC(C)=O)[C@]12C)OOC1(CCC(C(=O)NCCC)CC1)OO5 (stereo in doubt; 9)
- IC50 (Plasmodium falciparum [1]): 14.9 nM
- IC90 (Plasmodium falciparum [1]): 63.2 nM
- IC50 (Plasmodium falciparum [2]): 18.1 nM
- IC90 (Plasmodium falciparum [2]): 39.6 nM
- IC50 (Plasmodium falciparum [3]): 10.5 nM
- IC90 (Plasmodium falciparum [3]): 17.8 nM

Structure (SMILES): CC(=O)O[C@H]1C[C@H]2[C@@H]([C@H](OC(C)=O)C[C@@H]3CC4(CC[C@@]32C)OOC2(CCC(C(=O)O)CC2)OO4)[C@@H]2CC[C@H]([C@H](C)CCC(=O)O)[C@@]12C (stereo in doubt; 6a)
- IC50 (Plasmodium falciparum [1]): 135 nM
- IC90 (Plasmodium falciparum [1]): 257 nM
- IC50 (Plasmodium falciparum [2]): 135 nM
- IC90 (Plasmodium falciparum [2]): 156 nM
- GI50 (UO-31): 1740 nM
- TGI (UO-31): 3650 nM
- CC50 (UO-31): 7660 nM
- IC50 (Plasmodium falciparum [3]): 98.3 nM
- IC90 (Plasmodium falciparum [3]): 147 nM

Structure (SMILES): C[C@@H]1CC[C@H]2[C@@H](C)C(=O)O[C@@H]3O[C@@]4(C)CC[C@@H]1[C@]32OO4 [ARTEMISININ]
- IC50 (Plasmodium falciparum [4]): 9 nM
- IC90 (Plasmodium falciparum [4]): 12.8 nM
- IC50 (Plasmodium falciparum [5]): 13 nM
- IC90 (Plasmodium falciparum [5]): 17.4 nM
- IC50 (Plasmodium falciparum [6]): 6.7 nM
- IC90 (Plasmodium falciparum [6]): 11.5 nM

Structure (SMILES): CC(=O)O[C@H]1C[C@H]2[C@@H]([C@H](OC(C)=O)C[C@@H]3CC4(CC[C@@]32C)OOC2(CCC(C)CC2)OO4)[C@@H]2CC[C@H]([C@H](C)CCC(=O)O)[C@@]12C (stereo in doubt; 18)
- GI50 (IGROV-1): 1400 nM
- TGI (IGROV-1): 2760 nM
- CC50 (IGROV-1): 5430 nM
- Activity (Mus musculus [7]): 10.2 days
- Activity (Mus musculus [8]): 20 days
- Activity (Mus musculus [9]): 22.6 days
- GI50 (EKVX): 1450 nM
- LC50 (EKVX): 5780 nM
- TGI (EKVX): 2900 nM
- IC50 (Plasmodium falciparum [2]): 17.7 nM
- GI50 (COLO 205): 1980 nM
- TGI (COLO 205): 4400 nM
- CC50 (COLO 205; [10]): 9780 nM
- GI50 (UO-31): 1500 nM
- TGI (UO-31): 3000 nM
- CC50 (UO-31): 6020 nM
- IC50 (Plasmodium falciparum [3]): 31.1 nM
- GI50 (HOP-62): 1640 nM
- TGI (HOP-62): 3490 nM
- CC50 (HOP-62; [10]): 7400 nM

Structure (SMILES): CCCOC(=O)CC[C@@H](C)[C@H]1CC[C@H]2[C@@H]3[C@H](OC(C)=O)C[C@@H]4CC5(CC[C@]4(C)[C@H]3C[C@H](OC(C)=O)[C@]12C)OOC1(CCC(C(=O)OCCC)CC1)OO5 (stereo in doubt; 5a)
- GI50 (LOX IMVI): 1090 nM
- TGI (LOX IMVI): 2740 nM
- CC50 (LOX IMVI; [10]): 6910 nM
- IC50 (Plasmodium falciparum [1]): 8.8 nM
- IC90 (Plasmodium falciparum [1]): 18 nM
- GI50 (IGROV-1): 1990 nM
- TGI (IGROV-1): 6160 nM
- CC50 (IGROV-1): > 100000 nM
- IC50 (Plasmodium falciparum [2]): 9 nM
- IC90 (Plasmodium falciparum [2]): 17.4 nM
- GI50 (UO-31): 1150 nM
- TGI (UO-31): 2440 nM
- CC50 (UO-31): 5190 nM
- IC50 (Plasmodium falciparum [3]): 6.7 nM
- IC90 (Plasmodium falciparum [3]): 9.4 nM

Structure (SMILES): CC(=O)O[C@H]1C[C@H]2[C@@H]([C@H](OC(C)=O)C[C@@H]3CC4(CC[C@@]32C)OOC2(CCC(C(=O)O)CC2)OO4)[C@@H]2CC[C@H]([C@H](C)CCC(=O)O)[C@@]12C (stereo in doubt; 6b)
- IC90 (Plasmodium falciparum [5]): > 300 nM
- IC50 (Plasmodium falciparum [1]): > 300 nM
- IC90 (Plasmodium falciparum [6]): > 300 nM
- IC50 (Plasmodium falciparum [2]): > 300 nM
- IC50 (Plasmodium falciparum [3]): > 300 nM
- IC90 (Plasmodium falciparum [3]): > 300 nM

Structure (SMILES): CCCNC(=O)CC[C@@H](C)[C@H]1CC[C@H]2[C@@H]3[C@H](OC(C)=O)C[C@@H]4CC5(CC[C@]4(C)[C@H]3C[C@H](OC(C)=O)[C@]12C)OOC1(CCC(C(=O)NCCC)CC1)OO5 (stereo in doubt; 10)
- IC50 (Plasmodium falciparum [1]): 52.3 nM
- IC90 (Plasmodium falciparum [1]): 127 nM
- IC90 (Plasmodium falciparum [6]): 78 nM
- IC50 (Plasmodium falciparum [2]): 58.3 nM
- IC50 (Plasmodium falciparum [3]): 38.5 nM
- IC90 (Plasmodium falciparum [3]): 56 nM

Structure (SMILES): CC(=O)O[C@H]1C[C@H]2[C@@H]([C@H](OC(C)=O)C[C@@H]3CC4(CC[C@@]32C)OOC2(CCC(C(=O)NCCN(C)C)CC2)OO4)[C@@H]2CC[C@H]([C@H](C)CCC(=O)NCCN(C)C)[C@@]12C (stereo in doubt; 12)
- IC50 (Plasmodium falciparum [4]): 128 nM
- IC90 (Plasmodium falciparum [4]): 187 nM
- IC50 (Plasmodium falciparum [5]): 145 nM
- IC90 (Plasmodium falciparum [5]): 160 nM
- IC50 (Plasmodium falciparum [6]): 132 nM
- IC90 (Plasmodium falciparum [6]): 167 nM
